From patent publication US10324096B2, “Method of diagnosis, prognostic or treatment of neurodegenerative disease” (CENTRE NATIONAL DE LA RECHERCHE SCIENTIFIQUE, priority 2011, dated 2019)

What was measured:
[1] = tested on: transgenic hTAU-P301L zebrafish embryos; experiment: Morpholino injection in transgenic hTAU-P301L zebrafish embryos: survival, anomalies; format: in vivo; conditions: morpholino 0.5 mM
Text: Transgenic hTAU-P301L embryos with morpholino-mediated knock-down of the 3-OST-2 coding gene with SEQ ID NO: 5 and the non-injected embryos were screened on the intensity of DsRed fluorescent protein at 24 hpf. With morpholino-mediated knock-down of the 3-OST-2 coding gene in the transgenic hTAU-P301L zebrafish model the level of hyperphosphorylation in Tau protein was investigated. First of all, the obtained zebrafish embryos from the crossing between WT line and transgenic zebrafish carrying the P301L mutation in Tau protein were injected with different morpholino concentrations, respectively 0.3 mM, 0.5 mM and 1 mM. The numbers of living embryos were assessed at 24 hours after injection and survival rates were determined. […] Thus, this concentration was chosen for further analyses (FIG. 12).
(§1) Morpholino oligonucleotides (MO) were designed to target the flanking region in the zebrafish 3-OST-2 gene in order to block the translation of the HS3ST2 mRNA: 5′-ATGGCATATAGGT TCCTGTCAAGCC . . . -3′. The morpholino antisense oligonucleotides were designed by Gene Tools (LLC One Summerton Way, Philomath, Oreg., USA). MO HS3ST2-ATG: 5′-[…]-3′.
The morpholinos were diluted to three different concentrations in Danieau buffer (58 mM NaCl, 0.7 mM KCl, 0.4 mM MgSO4, 0.6 mM Ca(NO3), 5 mM HEPES pH 7.6) and co-injected with 0.3 mg/mL dextran rhodamine (Molecular Probes, Eugene, Oreg., USA). […]

[2] = tested on: zebrafish 3-OST-2 gene / abnormally phosphorylated Tau protein; experiment: Morpholino knock-down of 3-OST-2 in hTAU-P301L zebrafish: hyperphosphorylated Tau; format: in vivo
Method: as §1
The morpholinos were diluted to three different concentrations in Danieau buffer (58 mM NaCl, 0.7 mM KCl, 0.4 mM MgSO4, 0.6 mM Ca(NO3), 5 mM HEPES pH 7.6) and co-injected with 0.3 mg/mL dextran rhodamine (Molecular Probes, Eugene, Oreg., USA). Transgenic zebrafish embryos at one-cell or two-cell stage were microinjected with approximately 2 nL of 0.5 mM, or 1 mM morpholino solution using a pressure microinjector and a Zeiss stereomicroscope (Zeiss). […]
The embryos resulting from crossing between AB line and transgenic zebrafish carrying the P301L mutated Tau gene were screened for the DsRed fluorescent protein at 24 hpf and at 48 hpf the vitellus was removed. […] Protein concentration was measured according to the Bradford method.
Levels of P-Tau181, characteristic of taupathy associated pathologies, were measured using a combination of monoclonal antibody HT7 (which recognizes amino acids 159-163 in normal Tau and P-Tau) and biotinylated monoclonal antibody AT270 (which recognizes P-Tau containing the phosphorylated threonine 181 residue). […]

[3] = target: T1, recombinant human tau protein (441-amino acid isoform), GSK-3 (Homo sapiens, UniProt P10636); experiment: Phosphorylation of recombinant human Tau by GSK-3 in the presence of GAGs, heparin or oligosaccharides; format: biochemical; conditions: 3-O-sulfated groups in heparin
T1 construct: purchased Millipore
T1 sequence (P10636 1-441 isoform P10636-8): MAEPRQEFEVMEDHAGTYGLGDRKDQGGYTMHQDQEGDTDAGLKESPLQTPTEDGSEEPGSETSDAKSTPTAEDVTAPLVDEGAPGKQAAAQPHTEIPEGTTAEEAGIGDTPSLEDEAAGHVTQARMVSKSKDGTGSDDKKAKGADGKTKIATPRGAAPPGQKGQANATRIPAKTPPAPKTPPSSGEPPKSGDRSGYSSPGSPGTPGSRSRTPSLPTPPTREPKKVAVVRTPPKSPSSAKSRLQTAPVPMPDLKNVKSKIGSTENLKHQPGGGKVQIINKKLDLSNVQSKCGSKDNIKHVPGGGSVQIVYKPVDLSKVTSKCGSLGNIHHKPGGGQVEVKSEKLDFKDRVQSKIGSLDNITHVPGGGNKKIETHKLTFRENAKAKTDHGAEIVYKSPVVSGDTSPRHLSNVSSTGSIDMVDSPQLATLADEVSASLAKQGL
Method: Phosphorylation by glycogen synthase kinase 3 (GSK-3). Recombinant hTau41 (Millipore) was incubated for 0 to 24 h with […] of recombinant GSK3 (Millipore) in the presence or absence of 50 mg/ml of heparin, Arixtra®, or the heparin hexasaccharide non 3-O-sulfated. Phosphorylation assays (0.050 ml) were carried out at 30° C. and comprised 25 mM Tris-HCl, pH 7.4, 0.1 mM EGTA, 0.1 mM sodium orthovanadate, 2.5 mM PKI (a specific inhibitor of cyclic AMP-dependent protein kinase), protease inhibitors (0.5 mM phenylmethylsulfonyl fluoride, 5 mg/ml aprotinin, 5 mg/ml leupeptin,
and 0.5 mg/ml pepstatin), tau protein ([…]), 10 mM magnesium acetate, 2 mM [g-^32P]ATP (approximately 100 cpm/nmol) 5 units/ml recombinant reconstituted GSK3. Reactions were initiated with ATP and aliquots were removed at various times ranging from 10 min to 24 h and used for SDS-polyacrylamide gel electrophoresis and immunoblotting. Immunoblots were performed as described (Masato Hasegawa et al., J Bio Chem. (1997) 272 (52), pp. 33118-33124). Alternatively, incorporation of ^32P radioactivity was measured after adsorption to Whatman P-81 paper, as described. Heparin and extracted GAGs were included in the assays at 50 mg/ml.

human Tau protein = target: T2, human Tau protein (Homo sapiens, UniProt P10636); experiment: Heparin/glycosaminoglycans ELISA competition assay towards human Tau protein (immobilized heparin); format: binding; conditions: FIG. 20
T2 construct: purchased R&D systems
T2 sequence (P10636 1-441 isoform P10636-8): as above
Method: FIGS. 6A and 6B presents the higher capacity of GAGs extracted from hippocampus of AD to bind to human tau protein compared to GAGs from age-matched normal control brains. An ELISA test was used to compare the capacity of the different GAGs to bind to tau protein. The ELISA competing assay used immobilized heparin to bind au in the absence of competing GAGs. For the assay, GAGs (used from 0.1 to 1000 ng/mL) were added to the ELISA together with the tau protein (used at 100 ng/mL). After 1 h incubation at 4° C. plates were washed and remaining tau signal was recorded in the plate. X-axis: % Tau protein binding to total sulfated GAGs. EC50 stands for the GAG concentration necessary to inhibit 50% of the tau protein binding to immobilized heparin. Y-axis: Control (white histogram), AD (black histogram).
AD and control hippocampus extracted GAGs binding to human Tau protein (R&D systems) was evaluated by an ELISA based competition binding essay (Najjam et al., 1997). ELISA type 96 wells plates were coated with a 2 μg/mL BSA-heparin conjugate solution prepared as previously described (Najjam et al., 1997). After washing with PBS/0.05% Tween-20 (washing solution), wells were saturated with 3% BSA in PBS. […] Peroxidase activity was measured by the tetramethylbenzidine (TMB) detection kit (Pierce). […]

[4] = tested on: abnormally phosphorylated Tau in wild type differentiated SH-SY5Y cells; experiment: Suppression of GAG sulfation by chlorate in differentiated SH-SY5Y cells, pTau western blot; format: cell-based, human; conditions: FIG. 8A, chlorate 50 mM
Method: Two cell types were used, (i) a wild type SH-SY5Y cells (mutation-independent model) in where abnormal phosphorylation is induced by oxidative stress and (ii) cells stably transfected with complete human tau protein having the mutation hTAU-P301L (mutation dependent model), characteristic of FTDP-17. As a consequence of the Tau mutation cells present high levels of abnormal phosphorylated Tau.
For the mutation dependent model cells were cultured as previously described (Schaeffer V et al., J Neurobiol 2006, July; 66(8):868-881). For the mutation independent model, human SH-SY5Y neuroblastoma cells were propagated in Dulbeco's modiced Eagle's medium (Gibco) with 5% fetal bovine serum and penicillin/streptomycin (5% CO2 and 95% air). For both models cells were plated at a density of 10^6 cells/cm^2 on 25 cm^2 dish and incubated under standard conditions for 24 h. […]
After harvesting, cells were and incubated in an ice bath for 5 min in a lysis buffer (50 mM Trus-HCl, 150 mM NaCl, 1% Triton X-100, 1 mM EDTA, 10 mM NaF, pH 8.0) containing 1 mM Na3VO4, and 0.1% protease inhibitor cocktail (Sigam). Lysates were centrifuged and proteins in the supernatants were quantified using the BCA protein assay kit (Pierce). […] Abnormally phosphorylated tau was detected by using anti-tau-pSer199 and anti-tau-pSer396 (Millipore) as described above. […] Results were expressed as a ratio of target protein to actine. […]

## 5′-GGCTTGACAGGAACCTATATGCCAT-3′ (all phosphorodiamidate morpholino (PMO)) [MO HS3ST2-ATG]
[1]
  major anomalies or deformities: did not give major anomalies or deformities
[1]; 24 hours post-injection
  survival rate: 67%
[2]; FIG. 13, anti-PHF-tau antibody clone AT8
  accumulation of abnormally phosphorylated Tau protein in spinal cord: diminishes the accumulation of abnormally phosphorylated Tau protein in spinal cord
[2]; decreasing expression of 3-OST-2 by morpholino
  accumulation of abnormal Tau hyperphosphorylation in vivo: accumulation of abnormal Tau hyperphosphorylation was markedly decreased

## heparin
[3]
  induction of abnormal Tau phosphorylation in vitro: able to induce abnormal Tau phosphorylation in vitro

## fucoidan
Human Tau protein
  competition with heparin for binding to human Tau protein (percentage of binding of test compound to hTau): able to compete with heparin for the binding to human Tau protein

## [O-][Cl+2]([O-])O [chlorate, sodium chlorate]
[4]
  levels of abnormally phosphorylated Tau epitopes S199, T231, S262, S396 (pTau/β actine): Decreased levels of the abnormally phosphorylated Tau epitopes
